Reference: PMC2195568 (The Journal of Experimental Medicine, 1999)

Key:
[1] = system: PBMCs from healthy HCV-seronegative blood donors; assay type: cell-based, human; conditions: of 12 healthy donors
[2] = system: PBMCs of patients with chronic HCV infection; assay type: cell-based, human; conditions: HCV core 178 stimulation; result in words
[3] = system: CTLs in the peripheral blood of patients with chronic HCV infection; conditions: cited from earlier work
[4] = after stimulation with HCV core 178

In the case of LLALLSCLTV [HCV core 178], the “blood donors with induced HCV core 178–specific CTLs” value ([1]; 10 μg/ml peptide, four replica cultures, 5 wk stimulation) is reported as “nine”, the “individuals recognizing HCV core 178 and CYP2A7 8–17” value [1, 4] is reported as “three” and the “individuals recognizing HCV core 178 only” value [1, 4] is reported as “four”. For the same sequence, the “individuals without CTL response” value [1, 4] was “three”, the “percentage of patients having cross-reactive CTLs compared with healthy donors” value [2] was “comparable to that of healthy donors” and the “processing and presentation of the peptide” value [3] was “processed and presented via the endogenous MHC class I pathway”. For the same sequence, the “recognition by CTLs in patients with chronic HCV infection” value ([3]; peripheral blood) was “target epitope for CTLs”.
